Common to all, as to assay type: binding
The target of assay [1] is T1, HusA W130N (Porphyromonas gingivalis, UniProt Q7MSY3, W130N).
T1 sequence (Q7MSY3 24-218 W130N): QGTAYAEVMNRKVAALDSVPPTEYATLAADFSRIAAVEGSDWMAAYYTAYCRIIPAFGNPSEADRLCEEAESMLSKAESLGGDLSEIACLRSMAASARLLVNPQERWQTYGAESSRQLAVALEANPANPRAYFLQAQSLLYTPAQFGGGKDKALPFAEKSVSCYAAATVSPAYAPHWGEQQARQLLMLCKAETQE
As to the kind of experiment: Tryptophan fluorescence quenching assay, HusA mutant W130N. As to conditions: haemin.

The target of assay [2] is T2, HusA R139A (Porphyromonas gingivalis, UniProt Q7MSY3, R139A).
T2 sequence (Q7MSY3 24-218 R139A): T1 sequence (Q7MSY3 24-218 W130N)
As to the kind of experiment: Tryptophan fluorescence quenching assay, HusA mutant R139A. As to conditions: haemin.

Assay [3] has as its target T3, HusA Y133A (Porphyromonas gingivalis, UniProt Q7MSY3, Y133A).
T3 sequence (Q7MSY3 24-218 Y133A): T1 sequence (Q7MSY3 24-218 W130N)
The assay can be described thus: Tryptophan fluorescence quenching assay, HusA mutant Y133A. The note with it: haemin.

Assay [4] has as its target T4, HusA L107A (Porphyromonas gingivalis, UniProt Q7MSY3, L107A).
T4 sequence (Q7MSY3 24-218 L107A): T1 sequence (Q7MSY3 24-218 W130N)
The assay can be described thus: Tryptophan fluorescence quenching assay, HusA mutant L107A. The note with it: haemin.

Assay [5] concerns the target T5, HusA R121A (Porphyromonas gingivalis, UniProt Q7MSY3, R121A).
T5 sequence (Q7MSY3 24-218 R121A): T1 sequence (Q7MSY3 24-218 W130N)
As to the kind of experiment: Tryptophan fluorescence quenching assay, HusA mutant R121A. As to conditions: haemin.

The target of assay [6] is T6, HusA L123N-V124N (Porphyromonas gingivalis, UniProt Q7MSY3, L123N/V124N).
T6 sequence (Q7MSY3 24-218 L123N/V124N): T1 sequence (Q7MSY3 24-218 W130N)
As to the kind of experiment: Tryptophan fluorescence quenching assay, HusA mutant L123N-V124N. The note with it: haemin, mutant L123N-V124N. As to the method: (§1) The quenching of intrinsic tryptophan fluorescence of HusA upon porphyrin additions was measured using a Carey Eclipse Fluorescence Spectrophotometer (Agilent) set to a photo multiplier effect (PME) of 850. A 5-mm path length quartz cuvette was used and all spectra were acquired at room temperature. Excitation was set to 295 nm and emission was measured from 300 nm to 500 nm using excitation/emission slit widths of 5 nm. Binding assays were performed at a protein concentration of 1 μM HusA in standard buffer at a working volume of 0.5 mL. […] The fluorescence quenching of HusA by PPIX was investigated in a similar manner with the following difference: the fluorescence intensities of ten 1 μM HusA samples were measured each with increasing amounts of PPIX after a 2-h incubation period to allow equilibrium to be reached. See Supplementary Methods for correction for inner filter effect and curve fitting. […]
(§2) Correction of inner filter effect and curve fitting in tryptophan fluorescence quenching assays The concentration of NATA was chosen such that the raw fluorescence intensity was similar to the 10 uM concentrations of HusA and mutants used. […] Fluorescence intensity was scaled with respect to the starting florescence and corrected for the inner filter effect. Fluorescence at 335 nm was used to fit binding curves. […]

Assay [7] deals with T7, HusA Y164A (Porphyromonas gingivalis, UniProt Q7MSY3, Y164A).
T7 sequence (Q7MSY3 24-218 Y164A): T1 sequence (Q7MSY3 24-218 W130N)
As to the kind of experiment: Tryptophan fluorescence quenching assay, HusA mutant Y164A. The note with it: haemin. As to the method: as §1, §2

Drawing on PMC6173696, “Structural properties of a haemophore facilitate targeted elimination of the pathogen Porphyromonas gingivalis” (Nature Communications, 2018), this text covers Kd for one compound.

One may read the Kd as the concentration at which binding is half-saturated.

Consider `C=CC1=C(C)c2cc3[nH]c(cc4nc(cc5[nH]c(cc1n2)c(C)c5CCC(=O)O)C(CCC(=O)O)=C4C)c(C)c3C=C.[Fe+3]` [haemin], for which the equilibrium dissociation constant (Kd) turned out to be 16 ± 1.8 µM in assay [1]; 6.3 ± 1.4 µM in assay [2]; 7.4 ± 0.6 µM in assay [3]; 5.5 ± 0.3 µM in assay [4]; 6.7 ± 1.2 µM in assay [5]; 10.3 ± 0.7 µM in assay [6]. Moreover, the Kd in assay [7] is 13 ± 0.7 µM.
